Results published in US20230310428A1, “EGFR INHIBITOR AND PREPARATION METHOD AND USE THEREOF” (HONGYUN BIOTECH CO., LTD., priority 2020, published 2023).

Legend:
Assay in all cases: Growth inhibitory activity of compounds on BaF3 cell lines stably transfected with kinase (MTS, 48 h)
Assay type in all cases: cell-based
[1] = target: T1, various mutants of kinase EGFR (BaF3 cell lines stably transfected with kinase) (Homo sapiens, UniProt P00533); conditions: BaF3 cells stably transfected with EGFR Δ19Del, read-out: IC50, growth inhibition, Δ19Del
T1 construct: other: BaF3 cells stably transfected with EGFR Δ19Del; MTS, 48 h; other: BaF3 cell line stably transfected with EGFR Δ19Del
Procedure, shortened: (§1)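 BaF3 cells stably transfected with EGFR mutants were exposed for 48 h at 37°C to 8 compound concentrations (top 10 µM, 1/3 dilutions, 0.1% DMSO). Growth was read by MTS at 490 nm after 1-4 h, in duplicate; IC50 was derived from inhibition rates versus DMSO control.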

[2] = target: T2, various mutants of kinase EGFR (BaF3 cell lines stably transfected with kinase) (Homo sapiens, UniProt P00533, C797S/L858R/T790M); conditions: BaF3 cells stably transfected with EGFR L858R/T790M/C797S, read-out: IC50, growth inhibition, L858R/T790M/C797S
T2 construct: expressed in transfected cells; host or cells: BaF3
Procedure, shortened: as §1

[3] = target: T3, various mutants of kinase EGFR (BaF3 cell lines stably transfected with kinase) (Homo sapiens, UniProt P00533, L858R); conditions: BaF3 cells stably transfected with EGFR L858R, read-out: IC50, growth inhibition, L858R
T3 construct: expressed in transfected cells; host or cells: BaF3
Procedure, shortened: as §1

[4] = target: T4, various mutants of kinase EGFR (BaF3 cell lines stably transfected with kinase) (Homo sapiens, UniProt P00533, L858R/T790M); conditions: BaF3 cells stably transfected with EGFR L858R/T790M, read-out: IC50, growth inhibition, L858R/T790M
T4 construct: expressed in transfected cells; host or cells: BaF3
Procedure, shortened: as §1

[5] = target: T5, various mutants of kinase EGFR (BaF3 cell lines stably transfected with kinase) (Homo sapiens, UniProt P00533, T790M/C797S, form not given); conditions: BaF3 cells stably transfected with EGFR Δ19Del/T790M/C797S, read-out: IC50, growth inhibition, Δ19Del/T790M/C797S
T5 construct: other: BaF3 cells stably transfected with EGFR Δ19Del/T790M/C797S; MTS, 48; other: BaF3 cell line stably transfected with EGFR Δ19Del/T790M/C7
Procedure, shortened: as §1

[6] = target: T6, various mutants of kinase EGFR (BaF3 cell lines stably transfected with kinase) (Homo sapiens, UniProt P00533, T790M, form not given); conditions: BaF3 cells stably transfected with EGFR Δ19Del/T790M, read-out: IC50, growth inhibition, Δ19Del/T790M
T6 construct: other: BaF3 cells stably transfected with EGFR Δ19Del/T790M; MTS, 48 h; other: BaF3 cell line stably transfected with EGFR Δ19Del/T790M; MTS, 48
Procedure, shortened: as §1

T3 sequence (P00533 25-1210 L858R): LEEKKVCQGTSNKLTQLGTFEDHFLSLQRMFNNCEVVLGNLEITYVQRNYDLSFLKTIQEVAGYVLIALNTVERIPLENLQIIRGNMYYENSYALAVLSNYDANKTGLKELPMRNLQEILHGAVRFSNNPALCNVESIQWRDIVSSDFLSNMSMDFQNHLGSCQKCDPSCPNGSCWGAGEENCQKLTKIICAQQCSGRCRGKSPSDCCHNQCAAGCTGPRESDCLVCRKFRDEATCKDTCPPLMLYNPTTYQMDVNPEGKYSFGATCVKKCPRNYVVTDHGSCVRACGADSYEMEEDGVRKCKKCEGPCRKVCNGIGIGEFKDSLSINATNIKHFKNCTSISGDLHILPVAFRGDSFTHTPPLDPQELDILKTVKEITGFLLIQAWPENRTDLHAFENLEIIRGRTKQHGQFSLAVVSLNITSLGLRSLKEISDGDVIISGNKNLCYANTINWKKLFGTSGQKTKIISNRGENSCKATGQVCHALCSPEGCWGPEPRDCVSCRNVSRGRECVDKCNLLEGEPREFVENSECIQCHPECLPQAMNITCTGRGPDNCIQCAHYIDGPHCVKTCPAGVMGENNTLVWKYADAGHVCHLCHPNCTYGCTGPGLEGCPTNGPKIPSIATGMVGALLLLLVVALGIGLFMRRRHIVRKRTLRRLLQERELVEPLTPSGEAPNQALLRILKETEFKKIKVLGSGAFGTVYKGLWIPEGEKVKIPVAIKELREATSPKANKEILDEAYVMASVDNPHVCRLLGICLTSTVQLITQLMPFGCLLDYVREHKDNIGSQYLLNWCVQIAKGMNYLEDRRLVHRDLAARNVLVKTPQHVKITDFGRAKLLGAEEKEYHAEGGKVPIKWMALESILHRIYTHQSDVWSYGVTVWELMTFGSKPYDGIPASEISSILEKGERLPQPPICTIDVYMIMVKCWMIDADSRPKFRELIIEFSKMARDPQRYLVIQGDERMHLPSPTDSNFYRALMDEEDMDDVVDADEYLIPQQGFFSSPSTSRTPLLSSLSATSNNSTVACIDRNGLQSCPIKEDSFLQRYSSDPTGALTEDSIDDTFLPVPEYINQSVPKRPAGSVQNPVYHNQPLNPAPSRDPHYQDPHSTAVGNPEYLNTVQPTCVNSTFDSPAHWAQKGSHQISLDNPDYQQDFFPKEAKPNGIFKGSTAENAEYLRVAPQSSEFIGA
T2 sequence (P00533 25-1210 T790M/C797S/L858R): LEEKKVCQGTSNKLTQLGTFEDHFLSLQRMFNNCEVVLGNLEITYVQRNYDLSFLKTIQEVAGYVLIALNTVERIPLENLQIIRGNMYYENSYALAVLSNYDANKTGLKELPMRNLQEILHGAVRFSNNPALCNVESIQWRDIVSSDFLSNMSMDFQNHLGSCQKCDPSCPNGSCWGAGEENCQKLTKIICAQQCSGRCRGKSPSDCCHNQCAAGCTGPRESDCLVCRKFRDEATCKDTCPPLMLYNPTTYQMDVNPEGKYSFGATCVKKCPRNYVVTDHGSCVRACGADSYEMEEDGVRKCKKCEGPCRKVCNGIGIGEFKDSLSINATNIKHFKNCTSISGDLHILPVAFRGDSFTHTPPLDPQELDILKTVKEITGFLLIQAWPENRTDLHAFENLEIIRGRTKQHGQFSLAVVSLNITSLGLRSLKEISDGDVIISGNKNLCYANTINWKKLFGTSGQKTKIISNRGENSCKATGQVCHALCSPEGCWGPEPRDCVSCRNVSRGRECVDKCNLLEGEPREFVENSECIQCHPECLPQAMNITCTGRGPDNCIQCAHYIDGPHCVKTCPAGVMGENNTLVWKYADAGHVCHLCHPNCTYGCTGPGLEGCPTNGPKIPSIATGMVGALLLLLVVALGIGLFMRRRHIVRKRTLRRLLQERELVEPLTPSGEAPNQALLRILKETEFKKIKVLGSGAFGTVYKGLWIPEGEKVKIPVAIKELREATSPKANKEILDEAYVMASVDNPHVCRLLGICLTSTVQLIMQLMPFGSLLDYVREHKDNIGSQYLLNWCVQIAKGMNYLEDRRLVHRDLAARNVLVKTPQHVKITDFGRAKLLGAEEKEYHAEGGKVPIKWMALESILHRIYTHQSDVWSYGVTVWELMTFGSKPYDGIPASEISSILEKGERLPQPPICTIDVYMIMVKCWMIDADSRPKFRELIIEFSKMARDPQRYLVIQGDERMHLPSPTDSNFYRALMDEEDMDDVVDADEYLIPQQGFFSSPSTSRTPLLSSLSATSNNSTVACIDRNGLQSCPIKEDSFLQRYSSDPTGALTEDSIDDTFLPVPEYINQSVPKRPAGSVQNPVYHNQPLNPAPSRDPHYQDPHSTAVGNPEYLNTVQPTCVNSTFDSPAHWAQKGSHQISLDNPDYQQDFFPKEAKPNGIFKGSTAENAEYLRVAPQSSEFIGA
T6 sequence (P00533 with tags, fused parts or gaps DEL746-750/T790M, form open): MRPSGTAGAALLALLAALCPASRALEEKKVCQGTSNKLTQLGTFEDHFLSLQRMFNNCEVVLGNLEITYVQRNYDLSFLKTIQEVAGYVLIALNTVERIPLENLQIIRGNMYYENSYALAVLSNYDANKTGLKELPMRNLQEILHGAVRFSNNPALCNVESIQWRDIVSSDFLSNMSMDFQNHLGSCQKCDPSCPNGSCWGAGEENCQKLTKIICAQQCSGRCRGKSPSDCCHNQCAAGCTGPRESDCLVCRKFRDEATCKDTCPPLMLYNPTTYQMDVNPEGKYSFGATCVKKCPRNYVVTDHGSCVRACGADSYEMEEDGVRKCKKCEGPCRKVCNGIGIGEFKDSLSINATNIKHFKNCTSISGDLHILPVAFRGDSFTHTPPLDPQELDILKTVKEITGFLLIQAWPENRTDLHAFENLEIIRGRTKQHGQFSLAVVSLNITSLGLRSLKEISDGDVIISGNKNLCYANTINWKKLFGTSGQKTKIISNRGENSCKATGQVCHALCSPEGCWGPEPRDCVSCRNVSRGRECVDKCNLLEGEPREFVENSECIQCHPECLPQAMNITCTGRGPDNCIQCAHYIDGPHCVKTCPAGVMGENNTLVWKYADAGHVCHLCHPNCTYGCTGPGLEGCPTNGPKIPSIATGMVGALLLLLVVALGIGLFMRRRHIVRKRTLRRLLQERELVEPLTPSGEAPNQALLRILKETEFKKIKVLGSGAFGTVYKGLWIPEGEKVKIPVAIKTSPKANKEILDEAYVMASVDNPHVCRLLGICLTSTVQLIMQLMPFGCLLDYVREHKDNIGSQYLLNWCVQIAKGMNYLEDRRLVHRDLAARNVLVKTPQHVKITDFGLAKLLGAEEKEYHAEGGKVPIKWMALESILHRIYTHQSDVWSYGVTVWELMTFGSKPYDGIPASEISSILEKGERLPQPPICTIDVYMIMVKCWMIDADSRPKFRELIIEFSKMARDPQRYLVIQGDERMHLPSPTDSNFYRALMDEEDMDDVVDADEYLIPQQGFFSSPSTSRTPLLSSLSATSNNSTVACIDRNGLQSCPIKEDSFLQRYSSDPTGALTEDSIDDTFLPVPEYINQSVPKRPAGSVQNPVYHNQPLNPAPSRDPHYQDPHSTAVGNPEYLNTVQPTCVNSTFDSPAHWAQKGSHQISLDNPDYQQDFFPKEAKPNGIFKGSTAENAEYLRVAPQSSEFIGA
T5 sequence (P00533 with tags, fused parts or gaps DEL746-750/T790M/C797S, form open): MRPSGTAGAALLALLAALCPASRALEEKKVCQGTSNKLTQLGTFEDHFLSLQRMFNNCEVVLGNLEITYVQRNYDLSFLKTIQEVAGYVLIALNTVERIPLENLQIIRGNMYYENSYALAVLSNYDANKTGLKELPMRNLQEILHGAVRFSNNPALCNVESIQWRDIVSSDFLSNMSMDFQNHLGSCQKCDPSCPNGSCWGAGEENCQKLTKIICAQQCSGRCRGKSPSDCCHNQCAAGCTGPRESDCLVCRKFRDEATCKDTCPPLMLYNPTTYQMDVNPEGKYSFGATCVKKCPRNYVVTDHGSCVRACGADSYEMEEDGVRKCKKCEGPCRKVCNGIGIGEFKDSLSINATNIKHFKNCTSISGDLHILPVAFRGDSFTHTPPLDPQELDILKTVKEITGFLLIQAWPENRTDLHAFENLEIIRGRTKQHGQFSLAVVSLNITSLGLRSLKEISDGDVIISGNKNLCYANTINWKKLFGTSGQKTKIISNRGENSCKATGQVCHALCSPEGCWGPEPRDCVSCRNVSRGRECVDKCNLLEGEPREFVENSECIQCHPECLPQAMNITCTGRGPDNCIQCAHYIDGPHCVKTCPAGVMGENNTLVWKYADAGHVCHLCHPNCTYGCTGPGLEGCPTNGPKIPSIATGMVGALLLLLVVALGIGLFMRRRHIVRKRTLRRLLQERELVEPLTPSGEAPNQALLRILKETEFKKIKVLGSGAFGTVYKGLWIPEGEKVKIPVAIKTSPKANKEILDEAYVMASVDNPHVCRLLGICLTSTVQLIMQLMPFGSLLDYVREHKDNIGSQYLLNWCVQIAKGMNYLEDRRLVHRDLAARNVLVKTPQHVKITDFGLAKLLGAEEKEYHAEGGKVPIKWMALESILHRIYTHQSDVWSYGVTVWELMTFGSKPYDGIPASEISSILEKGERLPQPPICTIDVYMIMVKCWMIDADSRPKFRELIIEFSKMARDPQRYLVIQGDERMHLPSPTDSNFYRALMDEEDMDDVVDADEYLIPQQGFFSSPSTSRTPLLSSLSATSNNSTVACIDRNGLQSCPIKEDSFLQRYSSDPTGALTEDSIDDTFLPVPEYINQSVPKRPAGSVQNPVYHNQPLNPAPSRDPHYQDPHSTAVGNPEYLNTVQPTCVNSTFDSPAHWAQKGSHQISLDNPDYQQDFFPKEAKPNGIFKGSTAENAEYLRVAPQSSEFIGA

| SMILES | IC50 [1] | IC50 [2] | IC50 [3] | IC50 [4] | IC50 [5] | IC50 [6] |
| --- | --- | --- | --- | --- | --- | --- |
| CCN(c1c(Nc2nc(Nc3ccc(N4CCC(N5CCN(C)CC5)CC4)cc3OC)ncc2Cl)ccc2nccnc12)S(C)(=O)=O [Compound I-224] | 50 to 500 nM | ≤ 50 nM | 50 to 500 nM | ≤ 50 nM | ≤ 50 nM | 50 to 500 nM |
| CCN(c1c(Nc2nc(Nc3ccc(N4CCC(N5CCN(C)CC5)CC4)nc3OC)ncc2Cl)ccc2nccnc12)S(C)(=O)=O [Compound I-225] | 50 to 500 nM | 50 to 500 nM | 50 to 500 nM | 50 to 500 nM | ≤ 50 nM | 50 to 500 nM |
| CCN(c1c(Nc2nc(Nc3cc(C)c(N4CCC(N5CCN(C)CC5)CC4)nc3OC)ncc2Cl)ccc2nccnc12)S(C)(=O)=O [Compound I-226] | 500 to 2500 nM | 500 to 2500 nM | 500 to 2500 nM | 50 to 500 nM | 500 to 2500 nM | 50 to 500 nM |
| CCc1cc(Nc2ncc(Cl)c(Nc3ccc4nccnc4c3N(CC)S(C)(=O)=O)n2)c(OC)nc1N1CCC(N2CCN(C)CC2)CC1 [Compound I-227] | 50 to 500 nM | ≤ 50 nM | ≤ 50 nM | ≤ 50 nM | ≤ 50 nM | ≤ 50 nM |
| C=Cc1cc(Nc2ncc(Cl)c(Nc3ccc4nccnc4c3N(CC)S(C)(=O)=O)n2)c(OC(F)(F)F)cc1N1CCC(N2CCN(C)CC2)CC1 [Compound I-228] | 50 to 500 nM | ≤ 50 nM | 50 to 500 nM | ≤ 50 nM | ≤ 50 nM | ≤ 50 nM |
| CCN(c1c(Nc2nc(Nc3cc(CC4CC4)c(N4CCC(N5CCN(C)CC5)CC4)cc3OC)ncc2Cl)ccc2nccnc12)S(C)(=O)=O [Compound I-229] | 50 to 500 nM | ≤ 50 nM | 50 to 500 nM | ≤ 50 nM | ≤ 50 nM | 50 to 500 nM |
| CCN(c1c(Nc2nc(Nc3cc(C)c(N4CCC(N(C)C)CC4)cc3OC)ncc2Cl)ccc2nccnc12)S(C)(=O)=O [Compound I-230] | ≤ 50 nM | ≤ 50 nM | ≤ 50 nM | ≤ 50 nM | ≤ 50 nM | ≤ 50 nM |
| CCN(c1c(Nc2nc(Nc3cc(C)c(N4CCN(C)CC4)cc3OC)ncc2Cl)ccc2nccnc12)S(C)(=O)=O [Compound I-231] | ≤ 50 nM | ≤ 50 nM | ≤ 50 nM | ≤ 50 nM | ≤ 50 nM | 50 to 500 nM |
| CCc1cc(Nc2ncc(Cl)c(Nc3ccc4nccnc4c3N(CC)S(C)(=O)=O)n2)c(OC)cc1N1CCN(C)CC1 [Compound I-232] | ≤ 50 nM | ≤ 50 nM | ≤ 50 nM | ≤ 50 nM | ≤ 50 nM | ≤ 50 nM |
| CCN(c1c(Nc2nc(Nc3cc(C)c(N4CCC(N(C)C)C4)cc3OC)ncc2Cl)ccc2nccnc12)S(C)(=O)=O (stereo not drawn) [Compound I-233] | ≤ 50 nM | ≤ 50 nM | ≤ 50 nM | ≤ 50 nM | ≤ 50 nM | ≤ 50 nM |
| CCc1cc(Nc2ncc(Cl)c(Nc3ccc4nccnc4c3N(C)S(=O)(=O)CC)n2)c(OC)nc1N1CCC(N2CCN(C)CC2)CC1 [Compound I-234] | 50 to 500 nM | ≤ 50 nM | 50 to 500 nM | ≤ 50 nM | ≤ 50 nM | ≤ 50 nM |
| CCS(=O)(=O)N(C)c1c(Nc2nc(Nc3cc(CC4CC4)c(N4CCC(N5CCN(C)CC5)CC4)cc3OC)ncc2Cl)ccc2nccnc12 [Compound I-235] | 50 to 500 nM | 50 to 500 nM | 50 to 500 nM | ≤ 50 nM | ≤ 50 nM | ≤ 50 nM |
| CCc1cc(Nc2ncc(Cl)c(Nc3ccc4nccnc4c3N(C)S(=O)(=O)CC)n2)c(OC)cc1N1CCN(C)CC1 [Compound I-236] | ≤ 50 nM | ≤ 50 nM | ≤ 50 nM | ≤ 50 nM | ≤ 50 nM | ≤ 50 nM |
| COc1cc(N2CCC(N3CCN(C)CC3)CC2)ccc1Nc1ncc(Cl)c(Nc2ccc3nccnc3c2N(C)S(=O)(=O)C2CC2)n1 [Compound I-237] | 50 to 500 nM | 50 to 500 nM | 50 to 500 nM | 50 to 500 nM | 50 to 500 nM | 50 to 500 nM |
| COc1cc(N2CCC(N3CCN(C)CC3)CC2)c(CC2CC2)cc1Nc1ncc(Cl)c(Nc2ccc3nccnc3c2N(C)S(=O)(=O)C2CC2)n1 [Compound I-238] | 50 to 500 nM | 50 to 500 nM | 50 to 500 nM | 50 to 500 nM | ≤ 50 nM | 50 to 500 nM |
| COc1nc(N2CCC(N3CCN(C)CC3)CC2)ccc1Nc1ncc(Cl)c(Nc2ccc3nccnc3c2N(C2CC2)S(C)(=O)=O)n1 [Compound I-239] | 50 to 500 nM | 50 to 500 nM | 50 to 500 nM | 50 to 500 nM | ≤ 50 nM | 50 to 500 nM |
| COc1nc(N2CCC(N3CCN(C)CC3)CC2)c(C)cc1Nc1ncc(Cl)c(Nc2ccc3nccnc3c2N(C2CC2)S(C)(=O)=O)n1 [Compound I-240] | 500 to 2500 nM | 500 to 2500 nM | 500 to 2500 nM | 500 to 2500 nM | 500 to 2500 nM | 500 to 2500 nM |
| CCc1cc(Nc2ncc(Cl)c(Nc3ccc4nccnc4c3N(C3CC3)S(C)(=O)=O)n2)c(OC)nc1N1CCC(N2CCN(C)CC2)CC1 [Compound I-241] | ≤ 50 nM | 50 to 500 nM | ≤ 50 nM | ≤ 50 nM | ≤ 50 nM | ≤ 50 nM |
| COc1cc(N2CCC(N3CCN(C)CC3)CC2)c(CC2CC2)cc1Nc1ncc(Cl)c(Nc2ccc3nccnc3c2N(C2CC2)S(C)(=O)=O)n1 [Compound I-242] | 50 to 500 nM | ≤ 50 nM | 50 to 500 nM | 50 to 500 nM | ≤ 50 nM | 50 to 500 nM |
| COc1cc(N2CCC(N(C)C)CC2)c(C)cc1Nc1ncc(Cl)c(Nc2ccc3nccnc3c2N(C2CC2)S(C)(=O)=O)n1 [Compound I-243] | ≤ 50 nM | 50 to 500 nM | ≤ 50 nM | ≤ 50 nM | 50 to 500 nM | ≤ 50 nM |
| COc1cc(N2CCN(C)CC2)c(C)cc1Nc1ncc(Cl)c(Nc2ccc3nccnc3c2N(C2CC2)S(C)(=O)=O)n1 [Compound I-244] | ≤ 50 nM | ≤ 50 nM | ≤ 50 nM | ≤ 50 nM | ≤ 50 nM | 50 to 500 nM |
| CCc1cc(Nc2ncc(Cl)c(Nc3ccc4nccnc4c3N(C3CC3)S(C)(=O)=O)n2)c(OC)cc1N1CCN(C)CC1 [Compound I-245] | ≤ 50 nM | ≤ 50 nM | ≤ 50 nM | ≤ 50 nM | ≤ 50 nM | ≤ 50 nM |
| COc1cc(N2CCC(N(C)C)C2)c(C)cc1Nc1ncc(Cl)c(Nc2ccc3nccnc3c2N(C2CC2)S(C)(=O)=O)n1 (stereo not drawn) [Compound I-246] | ≤ 50 nM | ≤ 50 nM | ≤ 50 nM | ≤ 50 nM | ≤ 50 nM | ≤ 50 nM |
| COc1cc(N2CCC(N3CCN(C)CC3)CC2)ccc1Nc1ncc(F)c(Nc2ccc3nccnc3c2N(C)S(=O)(=O)C2CC2)n1 [Compound I-247] | 50 to 500 nM | 500 to 2500 nM | 50 to 500 nM | 500 to 2500 nM | 50 to 500 nM | 500 to 2500 nM |
| COc1cc(N2CCC(N3CCN(C)CC3)CC2)c(C)cc1Nc1ncc(F)c(Nc2ccc3nccnc3c2N(C)S(=O)(=O)C2CC2)n1 [Compound I-248] | ≤ 50 nM | 50 to 500 nM | ≤ 50 nM | ≤ 50 nM | ≤ 50 nM | 50 to 500 nM |
| CCc1cc(Nc2ncc(F)c(Nc3ccc4nccnc4c3N(C)S(=O)(=O)C3CC3)n2)c(OC)cc1N1CCC(N2CCN(C)CC2)CC1 [Compound I-249] | ≤ 50 nM | 50 to 500 nM | ≤ 50 nM | ≤ 50 nM | ≤ 50 nM | 50 to 500 nM |
| CCc1cc(Nc2ncc(F)c(Nc3ccc4nccnc4c3N(C)S(=O)(=O)C3CC3)n2)c(OC(F)(F)F)cc1N1CCC(N2CCN(C)CC2)CC1 [Compound I-250] | 50 to 500 nM | 500 to 2500 nM | 50 to 500 nM | 50 to 500 nM | 50 to 500 nM | 500 to 2500 nM |
| COc1cc(N2CCC(N3CCN(C)CC3)CC2)c(CC2CC2)cc1Nc1ncc(F)c(Nc2ccc3nccnc3c2N(C)S(=O)(=O)C2CC2)n1 [Compound I-251] | 50 to 500 nM | 500 to 2500 nM | 50 to 500 nM | 50 to 500 nM | 50 to 500 nM | 500 to 2500 nM |
